Values joined by “and” are separate entries in the source; they are usually repeats but may differ in a detail not shown here. Equal entries are not always repeated.

Series [1] deals with Bel-7402 cells (mock-treated and sorafenib-resistant). Kind of series: Annexin V staining apoptosis assay, Bel-7402. It counts as cell-based, human. As for the experimental part: (§1) Cells were stained in binding buffer, proipidium iodide (PI) and FITC-conjugated Annexin V as provided by the Annexin-V-FLUO+S Staining Kit (Roche Diagnostics) according to manufacturer's instructions. Analysis was determined using a Canto II flow cytometer and FACSdiva software (BD Biosciences).

Series [2] deals with Huh-7 cells (mock-treated and sorafenib-resistant). Kind of series: Annexin V staining apoptosis assay, Huh-7. It counts as cell-based, human. As for the experimental part: as §1
Series [3] deals with NF-κB (nuclear p65 (Ser536), cytosolic p-IκBα (Ser32/36)). The series is described as follows: Western blotting of NF-κB activation. It counts as cell-based, human. As for the experimental part:
upon lysis with Buffer A (0.5 mM DTT, 10 mM HEPES, 10 mM KCl 1.5 mM MgCl2, pH7.9) for 15 minutes on ice and 0.5% NP-40 was added before extraction by centrifugation. The remaining pellet was treated with RIPA buffer (50 mM Tris-HCl pH7.4, 1% NP-40, 0.05% SDS 150 mM NaCl, 1 mM EDTA) for 30 minutes on ice and the nuclear fraction was obtained by centrifugation.
Western blots were developed using an ECL Plus kit (Amersham Biosciences, Piscataway, N.J.). The primary antibodies included mouse anti-human p65 (Ser536), mouse anti-human p-Akt (Ser473), anti-human p-Erk (Thr202/Tyr204), rabbit anti-human Bcl-2, rabbit anti-human cleaved caspase-9, rabbit anti-human cleaved PARP, mouse anti-human p-IκBα (Ser32/36) (Cell Signal Technology) and mouse anti-human α-tubulin, rabbit anti-human Bax, rabbit anti-human SP1 (PEP2) (Santa Cruz Technology, Santa Cruz, Calif.). After washing, the membrane was incubated with horseradish peroxidase-conjugated anti-mouse or rabbit antibody (Amersham) and then visualized with enhanced chemiluminescence plus according to the manufacturer's protocol.
Background: In western blotting, separated proteins are transferred to a membrane and probed.

A further series has as its system NF-κB promoter activity. The series is described as follows: Luciferase reporter assay, NF-κB promoter. It counts as cell-based, human. As for the experimental part: (§2) NF-κB promoter plasmid pNF-κB-Luc or CD47 luciferase promoter plasmid were transfected together with pRL-cytomegalovirus as normalization using Lipofectamine 2000 (Thermo Fisher Scientific). Cell were incubated for 48 hours prior to detection by Dual-Luciferase Reporter Assay System Kit (Promega) according to manufacterer's protocol. Gaussia Luciferase Assay Kit (GeneCopoeia) was used for CD47 detection. Samples were detected with Infinite F200 Tecan Multiplate reader (Tecan Austria GmbH).

For the next series, the system named is CD47 promoter activity. The series is described as follows: Luciferase reporter assay, CD47 promoter. It counts as cell-based, human. The method, then:
as §2
For orientation: In a reporter assay the amount or activity of a reporter protein is the signal.

The test system of series [4] is NF-κB binding to the CD47 promoter. Kind of series: ChIP-qPCR assay of NF-κB occupancy on the CD47 promoter. It counts as cell-based, human. As for the experimental part: The cells were processed for ChIP assays according to Upstate CHIP protocol. Briefly, cells were cross-linked for 10 min with 1% formaldehyde and lysed. Lysate pellets were resuspended and sonicated with a Microson sonifier XL-2000 (Misonix) for 10 cycles (ON/OFF 30 seconds; amplitude 10 microns). Protein-DNA complexes were immunoprecipitated using p65 (C-20) antibody (Santa Cruz Technology, Santa Cruz, Calif.) or Normal rabbit IgG (Thermo Fisher Scientific, Rockford, Ill.) bound to protein A agarose, eluted, and digested with proteinase K. For qPCR analysis of the ChIP DNA samples before amplicon generation, QIAquick-purified immunoprecipitates were dissolved in 30 μl of water. Standard PCR reactions using […] of the immunoprecipitated DNA were performed with a SYBR Green PCR kit (Applied Biosystems) using primers which generates a PCR amplicon flanking −564 and -1740 base pairs upstream of the NM 001777 (CD47) transcription start site based on bioinformatics analysis on the Human Genome Build from the UCSC Genome Browser February 2009 (GRCh37/hg19) Assembly. Calculation of NF-κB occupancy on the CD47 promoter was performed according to the ChIP-qPCR primer assay data analysis template from Superarray Bioscience (Frederick, Md.).
(In general: Real-time PCR tracks product formation cycle by cycle.)

Another series has as its system CD47 expression. The series is described as follows: Flow cytometric analysis of cell-surface CD47. It counts as cell-based, human. As for the experimental part: Phycoerythrin (PE)-conjugated CD47 (BD PharMingen, San Jose, Calif.), APC-conjugated CD133 (MACS Miltenyi Biotec), FITC-conjugated CD24 (MACS Miltenyi Biotec), FITC-conjugated EPCAM (Becton Dickinson), were incubated in phosphate-buffered saline (PBS) containing 2% fetal bovine serum (FBS) for 30 minutes at 4° C. Isotype-matched mouse immunoglobulins served as controls. The samples were analyzed using a Canto II flow cytometer and FACSdiva software (BD Biosciences, San Jose, Calif.).

The next series relates to MHCC97L cells. The series is described as follows: Annexin V staining apoptosis assay, MHCC97L. It counts as cell-based, human. The note with it: sorafenib 10 μM; MHCC97L shCD47 vs control. As for the experimental part: as §1
Series [5] relates to mock-treated and sorafenib-resistant HCC cells (Bel-7402 and Huh-7). The series is described as follows: XTT cell proliferation assay. It counts as cell-based, human. The conditions noted are these: sorafenib 5 to 25 μM, 48 h; mock-treated vs sorafenib-resistant cells. The method, then:
After 48 h, (2,3-Bis-(2-Methoxy-4-Nitro-5-Sulfophenyl)-2H-Tetrazolium-5-Carboxanilide) (XTT) dye, at a concentration of 5 mg/mL (Sigma-Aldrich, St Louis, Mo.), was added and the plates were incubated for 12 h in a moist chamber at 37° C. Optical density was determined by eluting the dye with dimethyl sulfoxide (Sigma-Aldrich) and the absorbance was measured at 570 nm. At least three independent experiments were performed.

Series [6] relates to patient-derived HCC tumor xenografts (PDTX#1 and PDTX#5). Kind of series: Sorafenib treatment of PDTX#1 and PDTX#5 xenografts (in vivo selection). The note with it: sorafenib 100 mg/kg oral for 31 days; NOD-SCID mice. The text has this: Using this in vivo treatment, we enriched the proportion of sorafenib-resistant HCC cells in residual tumors.
A further series concerns PDTX#5 tumor tissues. The series is described as follows: TUNEL assay of apoptotic nuclei in PDTX#5 tumors. It counts as in vivo, mice. The conditions noted are these: tumors harvested day 31. The method, then: The TUNEL assay was performed to detect apoptotic cells using in situ cell death detection kit (Roche Diagnostics, Indianapolis, Ind.). Briefly, paraffin-embedded tissues were fixed with 15 μg/mL proteinase K in 10 mM Tris/HCl at pH 7.4. The slides were then incubated with the TUNEL reaction mixture for 1 h at 37° C. After washing, the slides were incubated with a horseradish peroxidase-conjugated anti-fluorescein antibody for 30 min at 37° C. Stained slides were imaged on an Aperio Scanscope® CS imager (Vista, Calif.), generating 0.43 μm/pixel whole slide images. These images were compiled, and number of apoptotic nuclei was quantitated using the Aperio Spectrum® software with a pixel count algorithm.

For a further series, the target named is CD47 (human) (UniProt Q08722). Kind of series: cell-based or functional assay.
Where [7] appears, read: IMD-0354, Huh-7 and MHCC97L cells.
The mark [8] stands for this setting: TNF-α 20 ng/mL, PLC/PRF/5 and Bel-7402 cells.
The mark [9] stands for this setting: TNF-α for 1 hour, Bel-7402 and PLC/PRF/5 cells.

With `O=C(Nc1cc(C(F)(F)F)cc(C(F)(F)F)c1)c1cc(Cl)ccc1O` [IMD-0354], the “Toxic effects on cells” value in series [1] (0.5 μM IMD-0354, Bel-7402) is listed as “no toxic effects”; in series [2] (0.05 μM IMD-0354, Huh-7) it was “no toxic effects”. Also, the Sensitization to sorafenib entry is reported as “sensitized” in series [1] (0.5 μM IMD-0354 cotreatment with sorafenib, Bel-7402) and “sensitized” in series [2] (0.05 μM IMD-0354 cotreatment with sorafenib, Huh-7). The “Annexin V-positive (apoptotic) cells” value in series [1] (sorafenib plus IMD-0354 at 0.5 μM, mock-treated Bel-7402) is 30.8%; in series [1] (sorafenib plus IMD-0354 at 0.5 μM, sorafenib-resistant Bel-7402), 32.9%; in [2] (sorafenib plus IMD-0354, mock-treated Huh-7), 50.2%; in [2] (sorafenib plus IMD-0354, sorafenib-resistant Huh-7) it was 33.9%. Besides, the “NF-κB activation (phosphorylation of p65 and IκBα)” value in series [3] (IMD-0354 at 1 μM in Huh-7 and 3 μM in MHCC97L cells) is listed as “effectively suppressed NF-κB activation”. Besides, the NF-κB promoter activity entry in the series on NF-κB promoter activity (setting [7]) was “significantly down-regulated”. For the same molecule, in the series with CD47 promoter activity (setting [7]), the CD47 promoter activity entry was “significantly down-regulated”. In addition, the “Fold enrichment of NF-κB binding relative to background” value in series [4] (Huh-7 cells, site 1, 1 μM IMD-0354 for 24 hours (untreated 1.4-fold)) is 1.1 fold; in [4] (Huh-7 cells, site 2, 1 μM IMD-0354 for 24 hours (untreated 1.8-fold)) it was 0.9 fold; in [4] (MHCC97L cells, site 1, 3 μM IMD-0354 for 24 hours (untreated 4.3-fold)), 1.4 fold; in series [4] (MHCC97L cells, site 2, 3 μM IMD-0354 for 24 hours (untreated 2.8-fold)), 1.5 fold. Moreover, the “Cell-surface expression of CD47” value with CD47 expression (IMD-0354, MHCC97L and Huh-7 cells) was “reduction in cell-surface expression of CD47”.

As for `CNC(=O)c1cc(Oc2ccc(NC(=O)Nc3ccc(Cl)c(C(F)(F)F)c3)cc2)ccn1` [sorafenib], the “Annexin V-positive (apoptotic) cells” value was 38% in series [1] (sorafenib 15 μM, mock-treated Bel-7402, after CD47 knockdown); 25.2% in series [1] (sorafenib 15 μM, mock-treated Bel-7402, before CD47 knockdown (nontarget control)); 37.6% in series [1] (sorafenib 15 μM, sorafenib-resistant Bel-7402, after CD47 knockdown); 19.1% in series [1] (sorafenib 15 μM, sorafenib-resistant Bel-7402, before CD47 knockdown (nontarget control)); 29.0% in series [1] (sorafenib alone, mock-treated Bel-7402); 14.9% and 13.2% in series [1] (sorafenib alone, sorafenib-resistant Bel-7402). For the same molecule, the “Annexin V-positive (apoptotic) cells” value in series [2] (sorafenib alone, mock-treated Huh-7) was 37.7% and 43.0%; in series [2] (sorafenib alone, sorafenib-resistant Huh-7), 28.4% and 35.1%; in series [2] (sorafenib, mock-treated Huh-7, after CD47 knockdown), 57.9%; in series [2] (sorafenib, mock-treated Huh-7, before CD47 knockdown (nontarget control)), 48.8%; in series [2] (sorafenib, sorafenib-resistant Huh-7, after CD47 knockdown), 56.9%; in series [2] (sorafenib, sorafenib-resistant Huh-7, before CD47 knockdown (nontarget control)), 38.8%. Moreover, the “Sensitivity of cells to sorafenib after CD47 knockdown” value is on record as “increased the sensitivity of cells to sorafenib” in [2] (sorafenib 10 μM, Huh-7 shCD47 vs control) and “increased the sensitivity of cells to sorafenib” with MHCC97L cells. Further, the “Growth-suppressive effect on cell proliferation” value in series [5] was “significantly greater in mock-treated cells”. Also, the “Effect on xenograft tumors” value in series [6] is given as “tumor inhibition”. Besides, the “Percentage of apoptotic nuclei in tumor tissues (TUNEL)” value with PDTX#5 tumor tissues is “higher”.

TNF-α: the “NF-κB activation (nuclear p65 (Ser536) and cytosolic p-IκBα (Ser32/36))” value in series [3] (setting [8]) is listed as “successfully induced NF-κB activation”. In the series on NF-κB promoter activity (setting [9]), the NF-κB promoter activity result is on record as “increase in NF-κB promoter activity”. For the same molecule, in the series with CD47 promoter activity (setting [9]), the CD47 promoter activity result is given as “corresponding increase in CD47 promoter activity”. Also, the “Fold enrichment of NF-κB binding relative to background” value in series [4] (Bel-7402 cells, site 1, 20 ng/mL TNF-α, 1 hour before fixation (untreated 1.5-fold)) was 2.5 fold; in series [4] (Bel-7402 cells, site 2, 20 ng/mL TNF-α, 1 hour before fixation (untreated 1.6-fold)) it was 2.5 fold. The “CD47 expression on the surface of HCC cells” value with CD47 expression (setting [8]) was “increase in CD47 expression”.

B1: Monoclonal antibody against CD47 (B6H12) (antibody, from another filing, V domains shown)
VH: EVQLVESGGDLVKPGGSLKLSCAASGFTFSGYGMSWVRQTPDKRLEWVATITSGGTYTYYPDSVKGRFTISRDNAKNTLYLQIDSLKSEDTAIYFCARSLAGNAMDYWGQGTSVTVSS
VL: DIVMTQSPATLSVTPGDRVSLSCRASQTISDYLHWYQQKSHESPRLLIKFASQSISGIPSRFSGSGSGSDFTLSINSVEPEDVGVYYCQNGHGFPRTFGGGTKLEIK
As for B1, in the series with CD47 (human), the sorafenib sensitivity, mock-treated Bel-7402 cells, without to with anti-CD47 antibody at 2 µg/mL lay in the range of 29 to 37.6%; the sorafenib sensitivity, mock-treated Huh-7 cells, without to with anti-CD47 antibody at 2 µg/mL lay within 43 to 48.5%; the sorafenib sensitivity, sorafenib-resistant Bel-7402 cells, without to with anti-CD47 antibody at 2 µg/mL was in the range of 13.2 to 38.4%; the sorafenib sensitivity, sorafenib-resistant Huh-7 cells, without to with anti-CD47 antibody at 2 µg/mL was 35.1 to 39.3%.

Source of the values: US20170071918A1 (THE UNIVERSITY OF HONG KONG, priority 2015, published 2017).
